Reference: article PMC5418359, “Topical Ophthalmic Formulation of Trichostatin A and SurR9-C84A for Quick Recovery Post-alkali Burn of Corneal Haze” (Frontiers in Pharmacology, 2017)

Columns and labels:
[1] = system: rat corneal tissues; settings: for clathrin (conjunctival layer) and claudin (corneal layer) expressions, immunofluorescence: post-NaOH insult
[2] = system: cornea; assay: Mean opacity and mean permeability measurements, rat alkali burn model; type: in vivo; settings: for Mean in vitro score / Mean opacity measurement: 1 M NaOH 1 min, topical treatment 40 min; for Predicted irritation potential: rat, in vivo
Description: The mean in vivo scores was determined using the mean opacity measurements. The rat eyes were excised carefully and carried to the laboratory in HBSS supplemented with penicillin/streptomycin. The measurement of mean opacity was carried out using an opacitometer which measures the transmission of light through the center of each mounted cornea. The mean permeability score was determined by adding a fluorescent (rhodamine solution) on the anterior side of the holder and the corneas were incubated in a horizontal position for 90 min at 32°C. The medium in the posterior chamber was removed and added to 96 well plates and the OD at 490 nm was read. The readings obtained at OD490 were used to determine the permeability of each treatment with respect to the change in the untreated corneas.

[3] = Blood analysis; type: in vivo; parameters: HCT / MCH / WBC / RBC / HGB / MCHC: unit not given here; settings: rat blood; for MCV: in fL (unit assumed)
Description: The analysis of blood samples was performed directly using the ABX Micros ES 60 (Horiba Medicals). The parameters analyzed included the number of red blood cells (RBC’s), white blood cells (WBC’s), platelets and hemoglobin content. Briefly, 20 μL of the blood sample was acquired in the instrument and the readings were recorded.

[4] = system: conjunctival layer and corneal matrix; assay: H&E histology of corneal segments, rat alkali burn model; type: in vivo; settings: 1 M NaOH 1 min, topical treatment 40 min
Description: After the completion of the study, all tissues that required to be examined (eyes, brain, kidneys, liver, spleen, heart and lungs) were isolated. The cornea was carefully separated from the eye without damaging it and washed using phosphate buffer saline (PBS). Tissues were fixed using 4% paraformaldehyde (PF) overnight at 4°C and then washed in PBS. The tissue segments were dehydrated in graded ethanol, embedded in paraffin and 5–7 μm thick sections were cut using a microtome. Sections were collected on poly-lysine coated slides using the Leica cryostat and were fixed immediately in ice-cold acetone. All the sections were stained for haematoxylin–eosin (H&E) for critical analysis.

[5] = system: rat eyes post-alkali burn
[6] = system: corneal lysate; assay: Multianalyte ELISA of inflammatory cytokines in corneal lysate; type: in vivo, rat
Description: The cytokine profiling was performed using the Rat Inflammatory Cytokines & Chemokines Multi-Analyte ELISArray Kit (QIAGEN, USA). Briefly, serial dilutions of the Antigen Standard and the experimental samples were prepared. 50 μL of Assay Buffer was added to each well of the 8-well ELISA strips. Fifty microliters samples and/or standards were added to the appropriate wells of the ELISA strips and incubated for 2 h at room temperature. The ELISA strips were further washed using 350 μL 1 × Washing Buffer thrice. Hundred microliters of Detection Antibody solution was added to the ELISA strips and incubated for 1 h at room temperature. ELISA wells were washed as mentioned above. Hundred microliters of the Avidin–HRP solution was added to all wells and incubated for 30 min at room temperature. ELISA wells were washed as mentioned above. Hundred microliters of Development Solution was added to each well and incubated for 15 min at room temperature in the dark. Hundred microliters of Stop Solution was added to each well. The color changed from blue to yellow. The absorbance at 450 nm was measured within 30 min of stopping the reaction. The estimation of pg/mL of cytokines was performed using the values obtained from antigen standards and a graph was plotted for the cytokine expression with the effect of treatments.

[7] = system: rat corneal lysates
[8] = system: expression of survivin, TGF-beta-1, alpha-SMA and collagen IV in alkali burnt cornea; assay: Ex vivo RT-PCR dose ranging in alkali burnt rat eyes; settings: 1 M NaOH 1 min, treatment 40 min
Description: This procedure was carried out using a previously published protocol ([Lin et al., 2016]). Rat eyes were harvested from humanely killed rats and washed with HBSS. Rat eyes were further incubated with 1 M NaOH for 1 min and then treated with TSA ([…]), SurR9-C84A (0.5, 1.2, and 2.5 mg/kg), pSur/As-Sur ([…]) and empty plasmid (200, 400, and 800 μg/kg) for 40 min. Untreated eyes were maintained as controls. After treatment period, eyes were washed with PBS and total RNA was extracted using the TRIzol® reagent (cat# 15596-026, Thermo Fisher Scientific, Waltham, MA, USA), and complementary DNA (cDNA) was synthesized from RNA using the RevertAid H Minus First Strand cDNA Synthesis Kit (cat# K1631, Thermo Fisher Scientific). Expression of survivin, TGF-beta-1, alpha-SMA and collagen IV was determined by polymerase chain reaction (PCR).

Row | Compound | alpha-SMA expression, immunofluorescence ([1]; confocal microscopy) | survivin expression, immunofluorescence ([1]; confocal microscopy) | clathrin (conjunctival layer) and claudin (corneal layer) expressions, immunofluorescence [1] | Mean in vitro score [2] | Mean opacity measurement [2] | Predicted irritation potential [2] | MCHC [3] | RBC [3] | WBC [3] | MCV [3] | corneal tissue integrity (conjunctival layer, corneal matrix), H&E [4] | Collagen type IV gene expression, qRT-PCR [5] | IL-1 beta gene expression, qRT-PCR [5] | MMP-2 gene expression, qRT-PCR [5] | TGF-beta-1 gene expression, qRT-PCR [5] | IL-1 beta expression, ELISA [6] | IL-4 expression, ELISA [6] | other results
1 | [Na+].[OH-] [NaOH] | substantially enhanced | slightly increased | substantially lowered | 10.2 ± 0.5^∗∗∗ | 2.5 ± 0.5^∗∗ | Moderate irritation | 37.51 ± 4.79 | 6.53 ± 2.89 | 3.4 ± 1.19 | 62.5 ± 8.01 | damage of the conjunctival layer and the corneal matrix | increase | decreased | increase | increase | increase | decrease | collagen type IV expression, immunofluorescence ([1]; confocal microscopy): downregulated; IL-6 gene expression, qRT-PCR [5]: increased; MMP-9 gene expression, qRT-PCR [5]: lowered; TNF-alpha gene expression, qRT-PCR [5]: increased; alpha-integrin 5 gene expression, qRT-PCR [5]: lowered; GMCSF expression, ELISA [6]: enhanced; IFN-gamma expression, ELISA [6]: upregulated; IL-6 expression, ELISA [6]: enhanced; IL-10 expression, ELISA [6]: significant increase; IL-12 expression, ELISA [6]: decreased; IL-13 expression, ELISA [6]: enhanced; Rantes expression, ELISA [6]: upregulated; TNF-alpha expression, ELISA [6]: enhanced; increase in alpha-SMA expression, western blot ([7]; NaOH insult): 2.7 fold; decrease/downregulation of collagen type IV, western blot ([7]; rat, in vivo, iv): 1.1 fold
2 | SurR9-C84A: dominant negative survivin protein (survivin mutant) | substantial decrease | increase | more effective than TSA alone | 0.0^∗ | 0.0^∗ | No irritation | 36.61 ± 1.57 | 8.35 ± 0.99 | 1.3 ± 3.18 | 55.66 ± 1.86 | recovery of the conjunctival layer | efficiently downregulated | increase | downregulating | further increase | further increase | increase | most effective dosage in inhibiting expression of survivin, alpha-SMA, TGF-beta-1 and collagen IV [8]: 1.2 mg/kg; HCT [3]: increased the HCT count to normal range; HGB [3]: 17.1 ± 1.11; MCH [3]: reduced to normal range; PLT [3]: increased; HCT ([3]; listed as NaOH–SurR9-C84A): 46.85 ± 4.14; MCH ([3]; listed as NaOH–SurR9-C84A): 20.36 ± 1.42; PLT ([3]; listed as NaOH–SurR9-C84A): 547.16 ± 130; Fibronectin-1 gene expression, qRT-PCR [5]: significantly enhanced; alpha-SMA gene expression, qRT-PCR [5]: significant decrease; survivin gene expression, qRT-PCR [5]: significantly increased; IL-1 alpha expression, ELISA [6]: significantly increase; IL-2 expression, ELISA [6]: significantly increased; downregulation of alpha-SMA, western blot ([7]; post-NaOH insult): 6.75 fold; enhancement of Fibronectin-1 expression, western blot ([7]; post-NaOH insult): 1.97 fold; increase in TGF-beta-1 expression, western blot ([7]; post-NaOH insult): 2.4 fold; increase in survivin expression, western blot ([7]; post-NaOH insult): 7.7 fold
